Measured values reported in patent US20100179122A1 (priority 2005, published 2010).
Read-outs that look alike come from different tables or passages of the source.

What was measured:
[1] = molecular target: T1, mutant HIV reverse transcriptase (Y181C mutation) (Human immunodeficiency virus type 1 group M subtype B, UniProt P04585, Y768C); assay: Analogous RT inhibition assay, Y181C mutant; type: biochemical
T1 construct: mutations that occur in the reverse transcriptase segment of the pol gene; made in house
Experimental: (§1) 100 μL reaction mixtures were initiated with a combination of primer-template substrate (10 nM final concentration) and dNTPs (0.6 μM dNTPs, 0.75 μM [^3H]-dGTP). The heterodimeric nucleic acid substrate was generated by annealing the DNA primer pD500 (described in Shaw-Reid et al., J. Biol. Chem., 278: 2777-2780; obtained from Integrated DNA Technologies) to t500, a 500 nucleotide RNA template created by in vitro transcription (see Shaw-Reid et al., J. Biol. Chem., 278: 2777-2780). After 1 hour incubation at 37° C., reactions were quenched by 10 μl, streptavidin scintillation proximity assay beads (10 mg/mL, from Amersham Biosciences) in 0.5 M EDTA, pH 8. Microtiter plates were incubated an additional 10 minutes at 37° C. prior to quantification via Topcount (Packard).
(§2) Analogous assays were conducted substituting mutant HIV strains to determine the […] inhibition of compounds of the present invention against mutant HIV reverse transcriptase. In one strain the reverse transcriptase has the Y181C mutation and in the other strain the reverse transcriptase has the K103N mutation. The mutations were generated with the […] site-directed mutagenesis kit (Stratagene). […] The compounds set forth in the other Examples were not tested in the Y181C assay. […] The compounds set forth in the other Examples were not tested in the K103N assay.

[2] = molecular target: T2, mutant HIV reverse transcriptase (K103N mutation) (Human immunodeficiency virus type 1 group M subtype B, UniProt P04585, K690N); assay: Analogous RT inhibition assay, K103N mutant; type: biochemical
T2 construct: mutations that occur in the reverse transcriptase segment of the pol gene; made in house
Experimental: as §1, §2

[3] = system: acute HIV infection of T-lymphoid cells; assay: Assay for inhibition of HIV replication (spread assay); type: cell-based; conditions: read-out: IC95, spread assay
Experimental: An assay for the inhibition of acute HIV infection of T-lymphoid cells (alternatively referred to herein as the “spread assay”) was conducted in accordance with Vacca, J. P. et al., Proc. Natl. Acad. Sci. USA 1994, 91: 4096. […] The compounds set forth in the other Examples were not tested in the spread assay.

[4] = Human immunodeficiency virus 1, inhibition of acute HIV infection of T-lymphoid cells
[5] = reverse transcriptase with K103N mutation, tested up to 20 micromolar, read-out: IC50, K103N mutant assay
[6] = reverse transcriptase with Y181C mutation, tested up to 20 micromolar, read-out: IC50, Y181C mutant assay

For `O=C(CCOc1ccccc1)Nc1[nH]c2ccc(Cl)cc2c1S(=O)(=O)c1ccccc1` [Example 8, N-[5-chloro-3-(phenylsulfonyl)-1H-indol-2-yl]-3-phenoxypropanamide], the IC50 [1] was > 20000 nM, the IC50 [2] was > 20000 nM and the IC95 [3, 4] was < 1 µM.

In the case of `O=C(NCc1cccc(Cl)c1)Nc1[nH]c2ccc(Br)cc2c1S(=O)(=O)N1CCCC1` [Example 71, N-[5-bromo-3-(pyrrolidin-1-ylsulfonyl)-1H-indol-2-yl]-N′-(3-chlorobenzyl)urea], the IC50 [1] is reported as 1000 to 20000 nM, the IC50 [2, 5] is reported as < 1000 nM and the IC95 [3, 4] is reported as < 1 µM.

For `O=C(NCc1ccccc1)Nc1[nH]c2ccc(Br)cc2c1S(=O)(=O)N1CCCC1` [Example 72, N-benzyl-N′-[5-bromo-3-(pyrrolidin-1-ylsulfonyl)-1H-indol-2-yl]urea], the IC50 [1] was < 1000 nM, the IC50 [2, 5] was < 1000 nM and the IC95 [3, 4] was < 1 µM.

With `O=C(NCc1ccncc1)Nc1[nH]c2ccc(Br)cc2c1S(=O)(=O)N1CCCC1` [Example 86, N-[5-bromo-3-(pyrrolidin-1-ylsulfonyl)-1H-indol-2-yl]-N′-(pyridin-4-ylmethyl)urea] the IC50 [1, 6] was > 20000 nM, the IC50 [2, 5] was < 1000 nM and the IC95 [3, 4] was < 1 µM.

`O=C(Nc1[nH]c2ccc(Cl)cc2c1S(=O)(=O)c1ccccc1)C1CC1` [Example 3, N-[5-Chloro-3-(phenylsulfonyl)-1H-indol-2-yl]cyclopropanecarboxamide] was tested, and the IC50 [1] was 1000 to 20000 nM, the IC50 [2] was < 1000 nM and the IC95 [3, 4] was < 1 µM.

`CCC(C)C(=O)Nc1[nH]c2ccc(Cl)cc2c1S(=O)(=O)c1ccccc1` (stereo not drawn) [Example 26, N-[5-chloro-3-(phenylsulfonyl)-1H-indol-2-yl]-2-methylbutanamide] was tested, and the IC50 [1] was < 1000 nM, the IC50 [2] was 1000 to 20000 nM and the IC95 [3, 4] was < 1 µM.

For `O=C(Nc1[nH]c2ccc(Br)cc2c1S(=O)(=O)N1CCCC1)Nc1c(F)cccc1F` [Example 77, N-[5-bromo-3-(pyrrolidin-1-ylsulfonyl)-1H-indol-2-yl]-N′-(2,6-difluorophenyl)urea], the IC50 [1, 6] was 1000 to 20000 nM, the IC50 [2, 5] was < 1000 nM and the IC95 [3, 4] was < 1 µM.

For `O=C(Nc1[nH]c2ccc(Cl)cc2c1S(=O)(=O)c1ccccc1)C1COc2ccccc2O1` (stereo not drawn) [Example 11, N-[5-chloro-3-(phenylsulfonyl)-1H-indol-2-yl]-2,3-dihydro-1,4-benzodioxine-2-carboxamide], the IC50 [1] was < 1000 nM, the IC50 [2] was < 1000 nM and the IC95 [3, 4] was < 1 µM.

With `CO[C@@](C(=O)Nc1[nH]c2ccc(Cl)cc2c1S(=O)(=O)c1ccccc1)(c1ccccc1)C(F)(F)F` [Example 39, (2R)-N-[5-chloro-3-(phenylsulfonyl)-1H-indol-2-yl]-3,3,3-trifluoro-2-methoxy-2-phenylpropanamide] the IC50 [1] was < 1000 nM, the IC50 [2] was < 1000 nM and the IC95 [3, 4] was < 1 µM.

With `O=C(NCCCc1ccccc1)Nc1[nH]c2ccc(Br)cc2c1S(=O)(=O)N1CCCC1` [Example 90, N-[5-bromo-3-(pyrrolidin-1-ylsulfonyl)-1H-indol-2-yl]-N′-(3-phenylpropyl)urea] the IC50 [1, 6] was > 20000 nM, the IC50 [2] was < 1000 nM and the IC95 ([3]; Human immunodeficiency virus 1, T-lymphoid) was 1 to 10 µM.

`O=C(Nc1[nH]c2ccc(Cl)cc2c1S(=O)(=O)c1ccccc1)C1Cc2ccccc2O1` (stereo not drawn) [Example 10, N-[5-chloro-3-(phenylsulfonyl)-1H-indol-2-yl]-2,3-dihydro-1-benzofuran-2-carboxamide] was tested, and the IC50 [1] was < 1000 nM, the IC50 [2] was < 1000 nM and the IC95 [3, 4] was < 1 µM.

For `O=C(Nc1ccccn1)Nc1[nH]c2ccc(Br)cc2c1S(=O)(=O)N1CCCC1` [Example 75, N-[5-bromo-3-(pyrrolidin-1-ylsulfonyl)-1H-indol-2-yl]-N′-pyridin-2-ylurea], the IC50 [1, 6] was 1000 to 20000 nM, the IC50 [2, 5] was < 1000 nM and the IC95 [3, 4] was < 1 µM.

For `NC(=O)Nc1[nH]c2ccc(Br)cc2c1S(=O)(=O)N1CCCC1` [Example 89, N-[5-bromo-3-(pyrrolidin-1-ylsulfonyl)-1H-indol-2-yl]urea], the IC50 [1, 6] was > 20000 nM, the IC50 [2] was < 1000 nM and the IC95 [3, 4] was < 1 µM.
